According to US20020188323A1, “Methods, systems and devices for in vivo electrochemical production of therapeutic agents” (Remon Medical Technologies Ltd., priority 2001, published 2002):

Assays:
[1] = test system: cells; conditions: cited from earlier work
[2] = test system: human endothelial cells; test: Effect of hypochlorite on human endothelial cells (Vissers et al.); assay type: cell-based
From the text: Hypochlorite and hydrogen peroxide are strong oxidants and are extensively used as antiseptic agents. Hydrogen peroxide is routinely used as an antiseptic agent in cases of external wounds. Hypochlorite is used as an antiseptic agent during, for example, dental root treatment. Both hypochlorous acid and hydrogen peroxide are well-known disinfectants. Hypochlorite is widely used for treatment of drinking water and as a bactericide. Both hypochlorite and hydrogen peroxide have cytotoxic activity at concentrations of several ppm. Vissers et al. tested the effect of hypochlorite on cells. They noticed a necrosis threshold of 20-40 nmole HClO per 1.2×10^5 cells, which translates approximately into 2 ppm concentration. Transient growth (proliferation) inhibition occurred at lower concentrations of 5 nmole, or about 0.2-0.3 ppm. See, “Hypochlorous acid causes caspase activation and apoptosis or growth arrest in human endothelial cells”, by Margret C. M. Vissers, Juliet M. Pullar and Mark B. Hampton, Biochem. J. (1999) vol. 344, pp. 443-449. Schraufenstatter et al. discuss the effect of hypochlorite on P388D1 murine macrophage-like tumor cells in mice. They show cell damage at 0.5-1 ppm hypochlorite and cell death from about 4 ppm hypochlorite and up. […]

[3] = Dissociation of HClO; assay type: physicochemical; conditions: −log Ka
From the text: The dissociation constant of HClO or, in other words, the equilibrium constant of the reaction HClO→H^++ClO^−[6] is 3.7×10^−8.
Thus, the pKa of the reaction (i.e., −logka) equals 7.4. It is well known that when the pH of a solution equals the pKa of an acid dissolved therein, at all times, half of the acid molecules are dissociated. Since the blood pH value equals 7.4 half of the HClO is dissociated to H^+ and ClO^−.

[4] = test system: human endothelial cells; conditions: cited from earlier work
[5] = test system: P388D1 murine macrophage-like tumor cells; conditions: cited from earlier work
[6] = test system: viruses and bacteria; conditions: cited from earlier work

Row | SMILES | concentration with cytotoxic activity [1] | transient growth (proliferation) inhibition as concentration ([2]; equivalent of 5 nmole) | necrosis threshold as concentration ([2]; translated from nmole per 1.2×10^5 cells) [ppm] | pKa [3] | necrosis threshold [4] | transient growth (proliferation) inhibition ([4]; lower concentrations than necrosis) [nmol] | concentration causing cell damage [5] | concentration causing cell death [5] [ppm] | level required to kill all viruses and bacteria [6] [ppm]
1 | OO [hydrogen peroxide] | several |  |  |  |  |  |  |  | 
2 | OCl [hypochlorite, hypochlorous acid] | several | 0.2-0.3 ppm | ~2 | 7.4 | 20-40 nmole HClO per 1.2×10^5 cells | 5 | 0.5-1 ppm | ≥ 4 | 40
